Data on 24 compounds can be found in patent US20080038321A1, “PROPHYLACTIC/THERAPEUTIC COMPOSITIONS FOR LIVER DISEASES” (Ajinomoto Co., Inc., priority 2004, published 2008).

The test system of data set [1] is TRB3. Kind of data set: TRB3 mRNA in Fao cells with L-Asp, L-Ala or both (quantitative PCR). It is filed as cell-based, rat. As to conditions: 3 h, L-Asp 0.05 mM, L-Ala 0.03 mM or both. How it is done: (§1) Whether the suppressive effect of L-Asp on TRB3 expression in rat hepatocyte-derived Fao cells is increased by adding L-Ala as another amino acid was studied. Whether the expression of HNF-4α is increased was also studied. Fao cells were inoculated on a 24-well plate to an amount of 2×10^5 cells/well, and the cells were cultivated in a 10% fetal bovine serum-containing RPMI 1640 medium (supplied from Nacalai Tesque, Inc.; Code No. 30264-85) at 37° C. in an atmosphere of 5% CO2 overnight. On the following day, the medium was replaced with one of a 10% fetal bovine serum-containing RPMI medium from which all amino acids had been removed (minus amino acid medium; Table 1) and media corresponding to the minus amino acid medium, except with L-Asp (concentration: 0.05 mM), L-Ala (concentration: 0.03 mM), or both added, and the cells were further cultivated at 37° C. in 2.5% CO2 atmosphere for three hours. RNAs were extracted from the cultured cells, and the TRB3 mRNA levels and the HNF-4α mRNA levels were determined through quantitative polymerase chain reaction (PCR) (Table 10).

Another data set concerns HNF-4α. As to the kind of experiment: HNF-4α mRNA in Fao cells with L-Asp, L-Ala or both (quantitative PCR). Conditions: 3 h, L-Asp 0.05 mM, L-Ala 0.03 mM or both. It is filed as cell-based, rat. The protocol:
as §1

Data set [2] has as its system TRB3. As to the kind of experiment: Suppressive effects of amino acids on TRB3 expression in cultured hepatocytes (Fao cells, quantitative PCR). It is filed as cell-based, rat. Conditions: 3 h, minus amino acid medium plus one L-amino acid 1 mM (or standard medium), mRNA, minus amino acid medium = 1.00, n = 4, mean ± SD. How it is done:
Suppressive effects of twenty-two amino acids on TRB3 expression in rat hepatic cancer-derived Fao cells were examined.
The standard medium is a medium corresponding to the minus amino acid medium, except for further containing amino acids listed in Table 2.
RNAs were extracted from the cultured cells, the expression levels of TRB3 gene were determined through quantitative polymerase chain reaction (PCR), and the suppressive effects of amino acids on TRB3 expression were determined and compared with data of TRB3 expression induced upon amino acid starvation. The gene expression was corrected with reference to β-actin expression level. The correction was carried out in the same manner in the after-mentioned genes.
The data were corrected and expressed while taking the average of TRB3 mRNA levels after three-hour cultivation in the minus amino acid medium as 1.00.

For data set [3], the system named is GK rats fed with high-fat diets. Kind of data set: GK rats fed with high-fat diets: body weight, fasting glucose, insulin, triglyceride, liver triglyceride. As to conditions: HFD with about 6% L-Asp or 0.01% pioglitazone.
Data set [4] has as its system TRB3. As to the kind of experiment: Suppressive effects of amino acids on TRB3 expression in cultured hepatocytes (Fao cells, quantitative PCR). It is filed as cell-based, rat. As to conditions: other experiments; 1 mM.
In data set [5] the test system is glucose-6-phosphatase (G6Pase). Kind of data set: Effect of L-Asp on G6Pase expression suppressive action of insulin in Fao cells (quantitative PCR). It is filed as cell-based, rat. As to conditions: 6 h, no insulin = 1.00. The protocol:
To verify whether an amino acid showing a TRB3 expression suppressive action actually increases the insulin action on hepatocytes, how L-Asp acts on glucose-6-phosphatase (G6Pase) expression suppressive action of insulin in rat hepatic cancer-derived Fao cells was studied.
Fao cells were inoculated on a 24-well plate and cultured overnight. Thereafter, 0, 0.3, and 1.0 mM L-Asp and 0, 10^−10, 10^−8, and 10^−6 M insulin were added respectively to a basal medium corresponding to RPMI 1640 medium containing no glucose but 0.1% BSA, except with L-Asp being removed therefrom, and the cells were further cultivated for six hours. RNAs were extracted from the cultured cells, and the expression levels of G6Pase were determined through quantitative PCR.
The G6Pase expression level in −Asp RPMI medium added with no insulin is defined as 1.00.
The values in the parentheses are values while defining the G6Pase expression levels in −Asp RPMI medium at respective insulin concentrations as 1.00, respectively.

The mark [6] stands for this setting: before administration (baseline).

Regarding `C[C@H](N)C(=O)O` [Ala, L-alanine], the “TRB3 mRNA level” value with TRB3 [1] (minus amino acid medium = 1.00) was found to be 0.43. The “expression level of TRB3 mRNA” value in the data set on TRB3 [1] (of minus amino acid medium) came out at 43%. The “expression level of HNF-4α mRNA” value in the data set with HNF-4α is “not increased”. The “HNF4α mRNA level” value in the data set on HNF-4α (minus amino acid medium = 1.00) is on record as 0.80.
As for `N[C@@H](CSSC[C@H](N)C(=O)O)C(=O)O` [L-Cyt, cystine], the TRB3 expression level in the data set with TRB3 [2] is given as 0.487 ± 0.13; in the data set on TRB3 [2] (listed as cystine) it was “significantly suppressed TRB3 expression”.
Regarding `NC(=O)CC[C@H](N)C(=O)O` [L-Gln, glutamine], the TRB3 expression level in the data set with TRB3 [2] is 0.750 ± 0.15; with TRB3 [2] (listed as glutamine), “significantly suppressed TRB3 expression”.
`NCC(=O)O` [L-Gly, glycine]: the results for the TRB3 expression level in the data set with TRB3 [2] and in the data set on TRB3 [2] (listed as glycine) were 0.665 ± 0.12 and “significantly suppressed TRB3 expression”, respectively.
As for `N[C@@H](Cc1c[nH]cn1)C(=O)O` [L-His, histidine], the TRB3 expression level in the data set on TRB3 [2] is given as 0.643 ± 0.19; in the data set on TRB3 [2] (listed as histidine) it was “significantly suppressed TRB3 expression”.
Consider `CCc1ccc(CCOc2ccc(CC3SC(=O)NC3=O)cc2)nc1` (stereo not shown) [Pio, pioglitazone, reference compound], for which, in data set [3] (setting [6]), the “Fasting blood glucose level” value was 121 ± 37 mg/dL, the Fasting insulin level was determined as 0.4 ± 0.3 ng/mL and the Fasting triglyceride level was 92 ± 19 mg/dL. In data set [3] (before administration (baseline), n = 6), this compound gave a Body weight of 222 ± 10 g. Moreover, in data set [3] (week 3), the “Fasting blood glucose level” value was 127 ± 5 mg/dL, the Fasting insulin level is 1.9 ± 0.2 ng/mL and the Fasting triglyceride level was determined as 97 ± 16 mg/dL. Also, in data set [3] (week 6), the “Fasting blood glucose level” value was 109 ± 8 mg/dL, the Fasting insulin level was 1.3 ± 0.5 ng/mL, the Fasting triglyceride level was 75 ± 12 mg/dL and the “Triglyceride content in liver” value was determined as 36 ± 8 mg/g.
On to `N=C(N)NCCC[C@H](N)C(=O)O` [arginine], for which the TRB3 expression level result in the data set with TRB3 [2] was “do not show significantly suppressed TRB3 expression”.
Consider `NC(=O)C[C@H](N)C(=O)O` [asparagine], for which, in the data set on TRB3 [2], the TRB3 expression level result is on record as “do not show significantly suppressed TRB3 expression”.
As for `C[N+](C)(C)CC(=O)O` [betaine, reference compound], in the data set with TRB3 [4], the “suppressive effect on TRB3 expression” value is listed as “does not show a suppressive effect”.
Turning to `N[C@@H](CS)C(=O)O` [cysteine], the TRB3 expression level result with TRB3 [2] was “do not show significantly suppressed TRB3 expression”.
Regarding `N[C@@H](CCC(=O)O)C(=O)O` [glutamic acid], the TRB3 expression level result with TRB3 [2] was “do not show significantly suppressed TRB3 expression”.
Consider `O=C(O)[C@@H]1C[C@@H](O)CN1` [hydroxyproline], for which the TRB3 expression level result in the data set on TRB3 [2] is listed as “do not show significantly suppressed TRB3 expression”.
`CC[C@H](C)[C@H](N)C(=O)O` [isoleucine]: the TRB3 expression level entry with TRB3 [2] was “do not show significantly suppressed TRB3 expression”.
In the case of `CC(C)C[C@H](N)C(=O)O` [leucine], the TRB3 expression level result in the data set on TRB3 [2] is given as “do not show significantly suppressed TRB3 expression”.
On the same count and under the same terms, with `NCCCC[C@H](N)C(=O)O` [lysine] the entry was “do not show significantly suppressed TRB3 expression”; with `CSCC[C@H](N)C(=O)O` [methionine], “do not show significantly suppressed TRB3 expression”; with `N[C@@H](Cc1ccccc1)C(=O)O` [phenylalanine], “do not show significantly suppressed TRB3 expression”.
Consider `O=C(O)[C@@H]1CCCN1` [proline], for which the TRB3 expression level result in the data set on TRB3 [2] is listed as “do not show significantly suppressed TRB3 expression”.
For `N[C@@H](CO)C(=O)O` [serine], in the data set on TRB3 [2], the TRB3 expression level result is “do not show significantly suppressed TRB3 expression”.
With `C[C@@H](O)[C@H](N)C(=O)O` [threonine], the TRB3 expression level result in the data set on TRB3 [2] is “do not show significantly suppressed TRB3 expression”.
On to `N[C@@H](Cc1c[nH]c2ccccc12)C(=O)O` [tryptophan], for which the TRB3 expression level entry in the data set on TRB3 [2] is reported as “do not show significantly suppressed TRB3 expression”.
As for `N[C@@H](Cc1ccc(O)cc1)C(=O)O` [tyrosine], in the data set on TRB3 [2], the TRB3 expression level result is “do not show significantly suppressed TRB3 expression”.
Same read-out and setting: with `CC(C)[C@H](N)C(=O)O` [valine] the entry was “do not show significantly suppressed TRB3 expression”.
As for “insulin: insulin added to the Fao cell culture medium at 10^-10 to 10^-6 M [reference compound]”, the G6Pase expression level in data set [5] (insulin 10^-6 M alone in -Asp RPMI) is listed as 0.023 (1.00); in data set [5] (insulin 10^-8 M alone in -Asp RPMI), 0.032 (1.00); in data set [5] (insulin 10^-10 M alone in -Asp RPMI), 0.148 (1.00).
